Experimental data reported in publication PMC10797637 (Journal of natural products, 2023).

Legend:
P. falciparum Dd2 = test: Plasmodium falciparum SYBR Green I assay; assay type: cell-based; details: relative to HepG2 cytotoxicity
HepG2 human hepatocytes = test: Human cell cytotoxicity assay; assay type: cell-based; details: HepG2, read-out: HepG2 EC50

Compound: COC(=O)[C@]12Oc3cc4c(c(O)c3C(=O)C1=C(O)CC[C@@H]2O)[C@@H]1C=C[C@@]2(C4)C(=O)c3cc(C)cc(O)c3C(O)=C2C1=O [compound 8, xanthoquinodin A2]
- P. falciparum SI (P. falciparum Dd2): >50
- EC50 (HepG2 human hepatocytes): > 25 µM

Compound: COC(=O)[C@@]12Oc3cc4c(c(O)c3C(=O)C1=C(O)CC[C@@H]2O)[C@@H]1C=C[C@@]2(C4)C(=O)c3cc(C)cc(O)c3C(O)=C2C1=O [compound 7, xanthoquinodin A1]
- EC50 (HepG2 human hepatocytes): > 25 µM

Compound: COC(=O)[C@]1([C@@H](O)CCC(=O)O)CC(=O)c2c(cc3c(c2O)[C@@H]2C=C[C@@]4(C3)C(=O)c3cc(C)cc(O)c3C(=O)[C@]4(O)C2=O)O1 [compound 4, Xanthoquinodin NPDG A4]
- EC50 (HepG2 human hepatocytes): > 25 µM

Compound: COC(=O)[C@@]12Oc3cc4c(c(O)c3C(=O)C1=C(O)CC[C@@H]2O)[C@@H]1C=C[C@@]2(C4)C(=O)c3cc(C)cc(O)c3C(=O)[C@]2(O)C1=O [compound 1, xanthoquinodin NPDG A1]
- EC50 (HepG2 human hepatocytes): > 25 µM

Compound: COC(=O)[C@]1([C@@H](O)CCC(=O)O)CC(=O)c2c(cc3c(c2O)[C@@H]2C=C[C@@]4(C3)C(=O)c3cc(C)cc(O)c3C(O)=C4C2=O)O1 [compound 3, xanthoquinodin NPDG A3]
- EC50 (HepG2 human hepatocytes): > 25 µM

Compound: COC(=O)[C@]1([C@@H]2CCC(=O)O2)CC(=O)c2c(cc3c(c2O)[C@@H]2C=C[C@@]4(C3)C(=O)c3cc(C)cc(O)c3C(=O)[C@]4(O)C2=O)O1 [compound 5, Xanthoquinodin NPDG A5]
- EC50 (HepG2 human hepatocytes): > 25 µM

Compound: COC(=O)[C@]1([C@@H]2CCC(=O)O2)CC(=O)c2c(cc3c(c2O)[C@@H]2C=C[C@@]4(C3)C(=O)c3cc(C)cc(O)c3C(O)=C4C2=O)O1 [compound 9, xanthoquinodin A3]
- EC50 (HepG2 human hepatocytes): > 25 µM

Compound: COC(=O)[C@]1([C@@H]2CCC(=O)O2)CC(=O)c2c(O)cc(C)cc2O1 [compound 12, gonytolide C]
- EC50 (HepG2 human hepatocytes): > 25 µM

Compound: COC(=O)[C@]12Oc3c(c(O)cc4c3[C@@H]3C=C[C@@]5(C4)C(=O)c4cc(C)cc(O)c4C(=O)[C@]5(O)C3=O)C(=O)C1=C(O)CC[C@@H]2O [compound 6, xanthoquinodin NPDG B1]
- EC50 (HepG2 human hepatocytes): > 25 µM
